According to patent US10973772B2, “Targeted delivery of hydrophilic drugs” (Double Bond Pharmaceuticals AB, priority 2014, dated 2021):
Structures can show the parent of a compound that is named as a salt. Where two headings read alike, the source gives them in different places.

Legend:
[1] = Solubility in aqueous ethanol (UV method); type: physicochemical
Method: Solubility in aqueous ethanol was determined by centrifuging an adequate amount of freshly obtained colloid at 3000 rpm for 30-90 min, decanting the supernatant, adding 10 mL water and shaking the mixture, then repeating centrifugation, shaking and washing 3 times. The centrifugate from the final centrifugation was air dried for 72 h at room temperature followed by drying in vacuo for 24 h. A portion of the dried centrifugate (20 mg) was resuspended in 6 mL aqueous ethanol by stirring at room temperature for 24 h. The mixture was centrifuged at 3000 rpm for 10 min and the supernatant filtered through a 0.2 micrometer filter to remove aggregates of undissolved solid product. The solubility of the compound was determined by a UV method.

[2] = rabbit ear vein; 1.25 mg doxorubicin/kg vs 5.0 mg doxorubicin/kg doxorubicin hydrochloride
Method: FIG. 9 are graphs illustrating doxorubicin concentration in the liver and the heart upon intravenous injection of 5 mg/kg aqueous doxorubicin hydrochloride and of 1.25 mg/kg of the composition of the invention according to Example 1.
The doxorubicin composition of the invention according to Example 1 (R═C16 sulfonate) was administered to Californian rabbits by injection into the ear vein at a concentration of 1.25 mg doxorubicin/kg body weight. For comparison aqueous doxorubicin hydrochloride was administered in the same manner at a concentration of 5.0 mg doxorubicin/kg body weight.

[3] = female, Wistar, rat, in vivo, 5 mg/kg, 2 h
[4] = Californian, rabbit, in vivo, 5 mg/kg, 0.5 h
[5] = In vivo distribution of doxorubicin in the liver of Wistar rats; settings: female, rat, intravenous, 5 mg/kg
[6] = In vivo distribution of doxorubicin in Californian rabbit liver; settings: intravenous, 5 mg/kg

Row | Compound | Solubility ([1]; colloid doxorubicin alkyl sulfates and alkane sulfonates in 30% ethanol (v/v)) | Solubility in 30% ethanol ([1]; doxorubicin salts, 30% ethanol (Table 5)) | Delivery of doxorubicin to the heart versus aqueous doxorubicin hydrochloride [2] | Efficiency of delivery of doxorubicin to the liver versus aqueous doxorubicin hydrochloride [2] | Increase of doxorubicin concentration in liver tissue [3] | Increase of doxorubicin concentration in liver tissue [4] | concentration at 2 h [5] | concentration at 0.5 h [6]
1 | CCCCCCCCCCCCCCCCS(=O)(=O)O.COc1cccc2c1C(=O)c1c(O)c3c(c(O)c1C2=O)C[C@@](O)(C(=O)CO)C[C@@H]3O[C@H]1C[C@H](N)[C@H](O)[C@H](C)O1 [doxorubicin alkane sulfonate n=16] | 11.94 µg/mL | 11.94 µg/mL | no difference | about four | – | – | – | –
2 | COc1cccc2c1C(=O)c1c(O)c3c(c(O)c1C2=O)C[C@@](O)(C(=O)CO)C[C@@H]3O[C@H]1C[C@H](N)[C@H](O)[C@H](C)O1 [Cl^−, doxorubicin hydrochloride] | – | – | – | – | (1) times | (1) times | 11.5 ± 2.98 ng/g | 0.392 ± 0.128 ng/g
